Converted amounts (≈) assume the structure as drawn. Where two headings read alike, the source gives them in different places.
Assays:
Leukemia L-1210 cells [1] = test: Test 1: antitumor activity against leukemia induced in CDF1 mice by Leukemia L-1210 cells (life-span increase); format: in vivo; conditions: intraperitoneally once per day for 9 consecutive days, observation 60 days
Experimental: Antitumor activities against leukemia in CDF, mice as induced by mouse leukemia, Leukemia L-1210 cells
After an elapsed time of 24 hours, a compounds of the formula (I) of this invention to be tested was administered intraperitoneally for 9 consecutive days once per day. Observation was made for 60 days, where survival days of each mouse tested were recorded. In comparison with the control test wherein mice were treated with the administration of physiological saline alone, the increase (%) in the life-span of the treated mice was calculated as T/C %, where T is the mean survival days of the treated animals and C is the mean survival days of the untreated control animals. For the comparison, daunomycin and adriamycin were also tested in the same manner.

[2] = Solubility in phosphate buffer solution of pH 7.4 at room temperature; format: physicochemical; conditions: for solubility: aqueous buffer, room temperature, read-out: Solubility; for solubility in the phosphate buffer solution (in words): phosphate buffer solution (0.05 M KH2PO4-NaOH) at pH 7.4
Leukemia L-1210 cells [3] = test: Test 3: antitumor activity against leukemia induced in CDF1 mice by Leukemia L-1210 cells (procedure of Test 1 repeated); format: in vivo; conditions: for % Increase in life-span (T/C, %): intraperitoneally once per day for 9 consecutive days, observation 60 days
Experimental: Antitumor activities against leukemia in CDF1 mice as induced by mouse leukemia, Leukemia L-1210 cells
To evaluate the antitumor effects of the compounds of the formula (I') according to the sixth aspect of this invention against experimental tumors in animals, the procedure of Test 1 given hereinbefore is repeated. Thus, CDF1 mice were intraperitoneally transplanted with cells of Leukemia L-1210 (at a dose of 1 x 10^5 cells/mouse). After an elapsed time of 24 hours from the tumor transplantation, a test compound of the formula (I') of the sixth aspect invention to be evaluated was administered intraperitoneally for 9 consecutive days once per day. Observation was made for 60 day, where survival days of each mouse tested were recorded. In comparison with the control test wherein mice were treated with the administration of physiological saline alone, the increase (%) in the life-span of the treated mice was calculated as T/C %, where T is the mean survival days of the treated animals and C is the mean survival days of the untreated control animals. For the comparison, daunomycin and adriamycin were also tested in the same manner.

[4] = compounds (Ic), phosphate buffer solution of pH 7.4 (0.05 M KH2PO4-NaOH)
[5] = compounds (I'-c) or (I'-d), phosphate buffer solution of pH 7.4 (0.05M KH2PO4-NaOH)

| Structure (SMILES) | % Increase in life-span (T/C, %) (Leukemia L-1210 cells [1]; Dose 0.15 mg/kg/day) | % Increase in life-span (T/C, %) (Leukemia L-1210 cells [1]; Dose 0.3 mg/kg/day) | % Increase in life-span (T/C, %) (Leukemia L-1210 cells [1]; Dose 0.6 mg/kg/day) | % Increase in life-span (T/C, %) (Leukemia L-1210 cells [1]; Dose 1.25 mg/kg/day) | % Increase in life-span (T/C, %) (Leukemia L-1210 cells [1]; Dose 2.5 mg/kg/day) | % Increase in life-span (T/C, %) (Leukemia L-1210 cells [1]; Dose 5 mg/kg/day) | % Increase in life-span (T/C, %) (Leukemia L-1210 cells [3]; Dose 0.3 mg/kg/day) | % Increase in life-span (T/C, %) (Leukemia L-1210 cells [3]; Dose 0.6 mg/kg/day) | % Increase in life-span (T/C, %) (Leukemia L-1210 cells [3]; Dose 1.25 mg/kg/day) | % Increase in life-span (T/C, %) (Leukemia L-1210 cells [3]; Dose 2.5 mg/kg/day) | % Increase in life-span (T/C, %) (Leukemia L-1210 cells [3]; Dose 5 mg/kg/day) | other results |
| --- | --- | --- | --- | --- | --- | --- | --- | --- | --- | --- | --- | --- |
| COc1cccc2c1C(=O)c1c(O)c3c(c(O)c1C2=O)C[C@@](O)(C(=O)CO)C[C@@H]3O[C@@H]1O[C@@H](C)[C@H](O)[C@@H](O)[C@H]1F [Example 3, 7-O-(2,6-dideoxy-2-fluoro-a-L-mannopyranosyl)adriamycinone] | 157% | >440% | >363% | >426% | 231% | 211% |  |  |  |  |  |  |
| COc1cccc2c1C(=O)c1c(O)c3c(c(O)c1C2=O)C[C@@](O)(C(=O)COC(=O)CCCCCCC(=O)O)C[C@@H]3O[C@@H]1O[C@@H](C)[C@H](O)[C@@H](O)[C@H]1F [Example 10, 7-O-(2,6-dideoxy-2-fluoro-α-L-mannopyranosyl)adriamycinone 14-0-hemisuberate] |  |  |  |  |  |  |  |  |  |  |  | solubility [2, 4]: 30 mg/mL (≈ 41.7 mM) |
| CCCCC(=O)OCC(=O)[C@]1(O)Cc2c(O)c3c(c(O)c2[C@@H](O[C@@H]2O[C@@H](C)[C@@H](O)[C@@H](O)[C@H]2F)C1)C(=O)c1ccccc1C3=O [Example 14, 4-demothoxy-7-O-(2,6-dideoxy-2-fluoro-α-L-talopyranosyl)adriamycinone 14-0-valerate] |  |  |  |  |  |  |  |  |  |  |  | solubility [2, 5]: < 1 mg/mL |
| COc1cccc2c1C(=O)c1c(O)c3c(c(O)c1C2=O)C[C@@](O)(C(=O)CO)C[C@@H]3O[C@@H]1O[C@@H](C)[C@@H](O)[C@@H](O)[C@H]1F [7-0-(2,6-Dideoxy-2-fluoro-α-L-talopyranosyl) adriamycinone, reference compound] | 127% | 182% | 185% | 275% | >350% | >750% | 182% | 185% | 275% | >350% | >750% | % Increase in life-span (T/C, %) (Leukemia L-1210 cells [3]; Dose 0.15 mg/kg/day): 127% |
| C[C@@H]1O[C@@H](O[C@H]2C[C@](O)(C(=O)CO)Cc3c(O)c4c(c(O)c32)C(=O)c2ccccc2C4=O)[C@H](F)[C@H](O)[C@H]1O [Example 4, 7-O-(2,6-dideoxy-2-fluoro-a-L-mannopyranosyl)-4-demethoxyadriamycinone] | >534% | >686% | >686% | 141% | 53% | 22% |  |  |  |  |  |  |
| COc1cccc2c1C(=O)c1c(O)c3c(c(O)c1C2=O)C[C@@](O)(C(C)=O)C[C@@H]3O[C@H]1C[C@H](N)[C@H](O)[C@H](C)O1 [Daunomycin, reference compound] | 130% | 133% | 166% | 193% | 151% | 117% | 133% | 166% | 193% | 151% | 117% | % Increase in life-span (T/C, %) (Leukemia L-1210 cells [3]; Dose 0.15 mg/kg/day): 130% |
| CC(=O)[C@]1(O)Cc2c(O)c3c(c(O)c2[C@@H](O[C@@H]2O[C@@H](C)[C@H](O)[C@@H](O)[C@H]2F)C1)C(=O)c1ccccc1C3=O [Example 2, 4-demethoxy-7-O-(2,6-dideoxy-2-fluoro-α-L-mannopyranosyl)daunomycinone] | 113% | 163% | 309% | > 686% | 134% | 73% |  |  |  |  |  |  |
| CC(=O)[C@]1(O)Cc2c(O)c3c(c(O)c2[C@@H](O[C@@H]2O[C@@H](C)[C@@H](O)[C@@H](O)[C@H]2F)C1)C(=O)c1ccccc1C3=O [Example 12, 4-demethoxy-7-O-(2,6-dideoxy-2-fluoro-α-L-talopyranosyl)daunomycinone] |  |  |  |  |  |  | 138% | 202% | > 436% | 101% | 80% | % Increase in life-span (T/C, %) (Leukemia L-1210 cells [3]; Dose 0.15 mg/kg/day): 106% |
| C[C@@H]1O[C@@H](O[C@H]2C[C@](O)(C(=O)COC(=O)CCCCCC(=O)O)Cc3c(O)c4c(c(O)c32)C(=O)c2ccccc2C4=O)[C@H](F)[C@H](O)[C@@H]1O [Example 18, 4-demethoxy-7-O-(2,6-dideoxy-2-fluoro-a-L-talopyranosyl)adriamycinone 14-0-hemipimelate] |  |  |  |  |  |  |  |  |  |  |  | solubility [2, 5]: < 1 mg/mL; solubility in the phosphate buffer solution (in words) [2]: scarcely soluble |
| COc1cccc2c1C(=O)c1c(O)c3c(c(O)c1C2=O)C[C@@](O)(C(=O)COC(=O)CCC(=O)O)C[C@@H]3O[C@@H]1O[C@@H](C)[C@H](O)[C@@H](O)[C@H]1F [Example 6, 7-O-(2,6-dideoxy-2-fluoro-α-L-mannopyranosyl)adriamycinone 14-0-hemisuccinate] |  |  |  |  |  |  |  |  |  |  |  | solubility [2, 4]: 25 mg/mL (≈ 37.7 mM) |
| COc1cccc2c1C(=O)c1c(O)c3c(c(O)c1C2=O)C[C@@](O)(C(=O)CO)C[C@@H]3O[C@H]1C[C@H](N)[C@H](O)[C@H](C)O1 [Adriamycin, reference compound] | 123% | 136% | 142% | 222% | 228% | 191% | 136% | 142% | 222% | 228% | 191% | % Increase in life-span (T/C, %) (Leukemia L-1210 cells [3]; Dose 0.15 mg/kg/day): 123% |
| COc1cccc2c1C(=O)c1c(O)c3c(c(O)c1C2=O)C[C@@](O)(C(C)=O)C[C@@H]3O[C@@H]1O[C@@H](C)[C@@H](O)[C@@H](O)[C@H]1F [7-0-(2,6-Dideoxy-2-fluoro-α-L-talopyranosyl) daunomycinone, reference compound] | 105% | 105% | 118% | 171% | 217% | 184% | 105% | 118% | 171% | 217% | 184% | % Increase in life-span (T/C, %) (Leukemia L-1210 cells [3]; Dose 0.15 mg/kg/day): 105% |
| COc1cccc2c1C(=O)c1c(O)c3c(c(O)c1C2=O)C[C@@](O)(C(C)=O)C[C@@H]3O[C@@H]1O[C@@H](C)[C@H](O)[C@@H](O)[C@H]1F [Example 1, 7-0-(2,6-dideoxy-2-fluoro-a-L-mannopyranosyl)daunomycinone] | 109% | 123% | 189% | >309% | 280% | 160% |  |  |  |  |  |  |
| COc1cccc2c1C(=O)c1c(O)c3c(c(O)c1C2=O)C[C@@](O)(C(=O)COC(=O)CCCC(=O)O)C[C@@H]3O[C@@H]1O[C@@H](C)[C@H](O)[C@@H](O)[C@H]1F [Example 7, 7-0-(2,6-dideoxy-2-fluoro-a-L-. mannopyranosyl)adriamycinone 14-0-hemiglutarate] |  |  |  |  |  |  |  |  |  |  |  | solubility [2, 4]: 28 mg/mL (≈ 41.4 mM) |
| COc1cccc2c1C(=O)c1c(O)c3c(c(O)c1C2=O)C[C@@](O)(C(=O)COC(=O)CCCCC(=O)O)C[C@@H]3O[C@@H]1O[C@@H](C)[C@H](O)[C@@H](O)[C@H]1F [Example 8, 7-0-(2,6-dideoxy-2-fluoro-a-L-mannopyranosyl)adriamycinone 14-0-hemiadipate] |  |  |  |  |  |  |  |  |  |  |  | solubility [2, 4]: 32 mg/mL (≈ 46.3 mM) |
| C[C@@H]1O[C@@H](O[C@H]2C[C@](O)(C(=O)CO)Cc3c(O)c4c(c(O)c32)C(=O)c2ccccc2C4=O)[C@H](F)[C@H](O)[C@@H]1O [Example 13, 4-demethoxy-7-O-(2,6-dideoxy-2-fluoro-a-L-talopyranosyl)adriamycinone] |  |  |  |  |  |  | >348% | >427% | 96% | 80% | 77% | complete cure of the leukemia in the mice (Leukemia L-1210 cells [3]; intraperitoneally, 0.15 mg/kg/day): three mice were completely cured among the treated four mice |
| C[C@@H]1O[C@@H](O[C@H]2C[C@](O)(C(=O)COC(=O)CCCC(=O)O)Cc3c(O)c4c(c(O)c32)C(=O)c2ccccc2C4=O)[C@H](F)[C@H](O)[C@@H]1O [Example 16, 4-demethoxy-7-O-(2,6-dideoxy-2-fluoro-α-L-talopyranosyl)adriamycinone 14-0-hemiglutarate] |  |  |  |  |  |  |  |  |  |  |  | solubility [2, 5]: 10 mg/mL (≈ 15.5 mM); solubility in the phosphate buffer solution (in words) [2]: soluble |
